Read-outs that look alike come from different tables or passages of the source.
Target: hcGAS (Homo sapiens, UniProt Q8N884)
Test: hcGAS LCMS assay (direct measurement of cGAMP production by LC/MS)
Format: biochemical
Procedure, shortened: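 Enzyme, substrates (ATP, GTP) and compound incubated 4 h, then quenched with acetonitrile/water containing 0.15 uM 13C/15N-labeled cGAMP internal standard. cGAMP formed quantified directly by LC/MS on HILIC amide column; IC50 values reported in potency bins.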

[1] = 4 h incubation with enzyme and substrates, cGAMP production by LC/MS, class symbols, read-out: hcGAS LCMS IC50
[2] = hcGAS 0.5 nM, ATP 100 μM, GTP 100 μM, dsDNA 25 nM, pH 7.4, 4 h incubation, read-out: hcGAS inhibition IC50 (activity class, Table D)

Chain of hcGAS (Q8N884 whole entry): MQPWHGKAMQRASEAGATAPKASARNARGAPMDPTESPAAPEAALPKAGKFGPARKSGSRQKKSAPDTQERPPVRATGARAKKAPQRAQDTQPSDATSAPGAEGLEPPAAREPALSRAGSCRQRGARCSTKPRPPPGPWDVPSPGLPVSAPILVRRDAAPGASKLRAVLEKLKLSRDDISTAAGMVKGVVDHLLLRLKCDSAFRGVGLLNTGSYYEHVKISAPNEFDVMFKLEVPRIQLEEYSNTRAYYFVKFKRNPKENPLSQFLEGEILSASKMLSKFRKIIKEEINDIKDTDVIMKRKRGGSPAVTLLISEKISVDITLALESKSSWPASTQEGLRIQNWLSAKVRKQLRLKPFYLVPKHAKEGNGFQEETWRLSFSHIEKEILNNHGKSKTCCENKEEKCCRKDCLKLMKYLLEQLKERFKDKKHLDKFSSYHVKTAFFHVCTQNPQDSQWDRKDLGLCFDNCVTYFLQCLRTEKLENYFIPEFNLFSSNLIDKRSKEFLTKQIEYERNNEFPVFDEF

Row | Structure (SMILES) | IC50 [1] [nM] | cGAS potency relative to Compound 1 (compared with Compound 1, from activity classes of Table D) | IC50 [2] [nM]
1 | COc1cccc(OC)c1-c1cc(C(=O)Nc2nnc(-n3nccc3N)s2)oc(=O)c1O[C@H]1CC[C@H](O)CC1 [Compound 108A, N-(5-(5-amino-1H-pyrazol-1-yl)-1,3,4-thiadiazol-2-yl)-4-(2,6-dimethoxyphenyl)-3-(((1r,4r)-4-hydroxycyclohexyl)oxy)-2-oxo-2H-pyran-6-carboxamide] | < 0.5 |  | 
2 | COc1cccc(OC)c1-c1cc(C(=O)Nc2nnc(-n3nccc3N)s2)oc(=O)c1OC1CC(O)C1 (single isomer, unassigned) [Compound 57B, N-(5-(5-amino-1H-pyrazol-1-yl)-1,3,4-thiadiazol-2-yl)-4-(2,6-dimethoxyphenyl)-3-((1,3-cis)-3-hydroxycyclobutoxy)-2-oxo-2H-pyran-6-carboxamide] | < 0.5 |  | 
3 | COCCOc1c(-c2c(O)cccc2Cl)cc(C(=O)Nc2nnc(-n3nccc3N)s2)oc1=O [Compound 41, N-(5-(5-amino-1H-pyrazol-1-yl)-1,3,4-thiadiazol-2-yl)-4-(2-chloro-6-hydroxyphenyl)-3-(2-methoxyethoxy)-2-oxo-2H-pyran-6-carboxamide] | < 0.5 | improved cGAS potency | < 0.5
4 | COc1cccnc1-c1cc(C(=O)Nc2nnc(-n3nccc3N)s2)oc(=O)c1OCCOC(F)F [Compound 61, N-(5-(5-amino-1H-pyrazol-1-yl)-1,3,4-thiadiazol-2-yl)-3-(2-(difluoromethoxy)ethoxy)-4-(3-methoxypyridin-2-yl)-2-oxo-2H-pyran-6-carboxamide] | 1 to 5 |  | 
5 | COc1cccc(OC)c1-c1cc(C(=O)Nc2nnc(-n3nccc3N)s2)oc(=O)c1OC[C@H](CO)N1CCSCC1 [79B*, (S)-N-(5-(5-amino-1H-pyrazol-1-yl)-1,3,4-thiadiazol-2-yl)-4-(2,6-dimethoxyphenyl)-3-(3-hydroxy-2-thiomorpholinopropoxy)-2-oxo-2H-pyran-6-carboxamide] | 1 to 5 |  | 
6 | COc1cccc(OC)c1-c1cc(C(=O)Nc2nnc(-n3nccc3N)s2)oc(=O)c1O[C@@H]1CCOC1 [52B*, (R)-N-(5-(5-amino-1H-pyrazol-1-yl)-1,3,4-thiadiazol-2-yl)-4-(2,6-dimethoxyphenyl)-2-oxo-3-((tetrahydrofuran-3-yl)oxy)-2H-pyran-6-carboxamide] | 0.5 to 1 |  | 
7 | COc1cccnc1-c1cc(C(=O)Nc2nnc(-n3nccc3N)s2)oc(=O)c1O[C@@H]1CCC[C@H](OC)C1 (single isomer, unassigned) [113D*] | 5 to 20 |  | 
8 | COCCOc1c(-c2c(CC#N)cccc2OC)cc(C(=O)Nc2nnc(-n3nccc3N)s2)oc1=O [Compound 32, N-(5-(5-amino-1H-pyrazol-1-yl)-1,3,4-thiadiazol-2-yl)-4-(2-(cyanomethyl)-6-methoxyphenyl)-3-(2-methoxyethoxy)-2-oxo-2H-pyran-6-carboxamide] | 1 to 5 |  | 
9 | COC[C@@H](O)COc1c(-c2c(OC)cccc2OC)cc(C(=O)Nc2nnc(-n3nccc3N)s2)oc1=O (single isomer, unassigned) [Compound 63B*] | 0.5 to 1 |  | 
10 | COc1cccc(OC)c1-c1cc(C(=O)Nc2nnc(-n3nccc3N)s2)oc(=O)c1O[C@@H]1CCC[C@@H](O)C1 (single isomer, unassigned) [109A*] | 1 to 5 |  | 
11 | COCCOc1c(-c2c(OC)ccnc2OC)cc(C(=O)Nc2nnc(-n3nccc3N)s2)oc1=O [Compound 19, N-(5-(5-amino-1H-pyrazol-1-yl)-1,3,4-thiadiazol-2-yl)-4-(2,4-dimethoxypyridin-3-yl)-3-(2-methoxyethoxy)-2-oxo-2H-pyran-6-carboxamide] | 1 to 5 |  | 
12 | COCCOCCOc1c(-c2c(OC)cccc2OC)cc(C(=O)Nc2nnc(-n3nccc3N)s2)oc1=O [Compound 30, N-(5-(5-amino-1H-pyrazol-1-yl)-1,3,4-thiadiazol-2-yl)-4-(2,6-dimethoxyphenyl)-3-(2-(2-methoxyethoxy)ethoxy)-2-oxo-2H-pyran-6-carboxamide] | 0.5 to 1 |  | 
13 | COc1cccc(OC)c1-c1cc(C(=O)Nc2nnc(-n3nccc3N)s2)oc(=O)c1OCCN1CCSC(CO)C1 (stereo not shown) [100A*/100B*] | 1 to 5 |  | 
14 | COc1cccc(OC)c1-c1cc(C(=O)Nc2nnc(-n3nccc3N)s2)oc(=O)c1OCC1CSCCO1 (stereo not shown) [83A*/83B*] | 0.5 to 1 |  | 
15 | COc1cccc(OC)c1-c1cc(C(=O)Nc2nnc(-n3nccc3N)s2)oc(=O)c1OCC(=O)N1CCSCC1 [Compound 90, N-(5-(5-amino-1H-pyrazol-1-yl)-1,3,4-thiadiazol-2-yl)-4-(2,6-dimethoxyphenyl)-2-oxo-3-(2-oxo-2-thiomorpholinoethoxy)-2H-pyran-6-carboxamide] | < 0.5 |  | 
16 | COCCOc1c(-c2c(C#N)cccc2C#N)cc(C(=O)Nc2nnc(-n3nccc3N)s2)oc1=O [Compound 12, N-(5-(5-amino-1H-pyrazol-1-yl)-1,3,4-thiadiazol-2-yl)-4-(2,6-dicyanophenyl)-3-(2-methoxyethoxy)-2-oxo-2H-pyran-6-carboxamide] | 0.5 to 1 |  | 
17 | COCCOc1c(-c2c(C)cccc2C#N)cc(C(=O)Nc2nnc(-n3nccc3N)s2)oc1=O (single isomer, unassigned) [Compound 24A*, (Ra)—N-(5-(5-amino-1H-pyrazol-1-yl)-1,3,4-thiadiazol-2-yl)-4-(2-cyano-6-methylphenyl)-3-(2-methoxyethoxy)-2-oxo-2H-pyran-6-carboxamide] | < 0.5 |  | < 0.5
18 | COCCOc1c(-c2c(OC)cccc2OC)cc(C(=O)Nc2nnc(-n3nccc3N)s2)oc1=O [Compound 6, N-(5-(5-amino-1H-pyrazol-1-yl)-1,3,4-thiadiazol-2-yl)-4-(2,6-dimethoxyphenyl)-3-(2-methoxyethoxy)-2-oxo-2H-pyran-6-carboxamide] | 0.5 to 1 |  | 
19 | COc1cccc(OC)c1-c1cc(C(=O)Nc2nnc(-n3nccc3N)s2)oc(=O)c1OCCO [Compound 17, N-(5-(5-amino-1H-pyrazol-1-yl)-1,3,4-thiadiazol-2-yl)-4-(2,6-dimethoxyphenyl)-3-(2-hydroxyethoxy)-2-oxo-2H-pyran-6-carboxamide] | < 0.5 |  | 

— patent publication US20260327221A1, “INHIBITORS OF CYCLIC GMP-AMP SYNTHASE AND USES THEREOF” (Ventus Therapeutics U.S., Inc., priority 2023, published 2026)
